Experimental data: US7635696B2, “Isoxazoline-indole derivatives with an improved antipsychotic and anxiolytic activity” (Janssen Pharmaceutica N.V., priority 2004, dated 2009)

What was measured:
[1] = biological target: T1, Human Dopamine D2L receptor (Homo sapiens, UniProt P14416); assay: Binding experiment for dopamine D2 receptor ([3H]Spiperone); settings: D2L-transfected CHO cell membranes; for IC50: read-out: pIC50 D2 (converted)
T1 construct: expressed in transfected cells; host or cells: CHO cells
Protocol: (§1) The interaction of the compounds of Formula (I) with dopamine-receptors, h5HT-transporter and h5HT1A receptor was assessed in in vitro radioligand binding experiments. In general, a low concentration of a radioligand with a high binding affinity for a particular receptor or transporter is incubated with a sample of a tissue preparation enriched in a particular receptor or transporter or with a preparation of cells expressing cloned human receptors in a buffered medium. During the incubation, the radioligand binds to the receptor or transporter. When equilibrium of binding is reached, the receptor bound radioactivity is separated from the non-bound radioactivity, and the receptor- or transporter-bound activity is counted. The interaction of the test compounds with the receptor is assessed in competition binding experiments. Various concentrations of the test compound are added to the incubation mixture containing the receptor- or transporter preparation and the radioligand. The test compound in proportion to its binding affinity and its concentration inhibits binding of the radioligand.
Human Dopamine D2L receptor-transfected CHO cells were collected by scraping into ice-cold Tris-HCl buffer (50 mM, pH 7.4). The suspension was centrifuged (23 500×g, 10 min, 4° C.) and pellets stored at −70° C. until required. They were then thawed and briefly homogenised using an Ultra-Turrax T25 homogeniser prior to dilution to an appropriate protein concentration optimised for specific and non-specific binding. [^3H]Spiperone (NEN, specific activity ˜70 Ci/mmol) was diluted in Tris-HCl assay buffer containing NaCl, CaCl2, MgCl2, KCl (50, 120, 2, 1, and 5 mM respectively, adjusted to pH 7.7 with HCl) at a concentration of 2 nmol/L. Prepared radioligand (50 μl) was then incubated (30 min, 37° C.) with membrane preparations pre-diluted to an appropriate protein concentration (400 μl), and with 50 μl of either the 10% DMSO control, Butaclamol (10^−6 mol/L final concentration), or compound of interest. Membrane-bound activity was detected by filtration through a Packard Filtermate harvester onto Unifilterplates, washing with ice-cold Tris-HCl buffer (50 mM; pH8.0; 3×4 ml). Filters were allowed to dry before adding scintillation fluid and counting in a Topcount scintillation counter. % Specific bound and competition binding curves were calculated using S-Plus software (Insightful).

Human 5HT1A receptor = biological target: T2, Human 5HT1A receptor (Homo sapiens, UniProt P08908); assay: Binding experiment for 5-HT1A receptor ([3H]8OHDPAT); settings: transfected L929 cell membranes, [3H]8OHDPAT; for IC50: read-out: pIC50 5-HT1A (converted)
T2 construct: expressed in transfected cells; host or cells: L929 cells (stably transfected)
T2 sequence (P08908 1-422): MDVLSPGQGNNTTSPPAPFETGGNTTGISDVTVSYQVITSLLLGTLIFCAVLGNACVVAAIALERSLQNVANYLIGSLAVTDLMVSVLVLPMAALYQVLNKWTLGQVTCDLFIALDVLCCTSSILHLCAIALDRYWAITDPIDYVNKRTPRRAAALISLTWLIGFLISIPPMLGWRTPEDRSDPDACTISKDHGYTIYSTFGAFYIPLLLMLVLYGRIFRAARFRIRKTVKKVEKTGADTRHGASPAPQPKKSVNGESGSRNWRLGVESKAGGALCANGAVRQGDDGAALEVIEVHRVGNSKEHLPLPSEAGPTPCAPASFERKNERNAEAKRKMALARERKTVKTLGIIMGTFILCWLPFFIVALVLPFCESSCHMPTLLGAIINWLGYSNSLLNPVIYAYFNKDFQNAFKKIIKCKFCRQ
Protocol: as §1
Human 5HT1A receptor-transfected L929 cells were collected by scraping into ice-cold Tris-HCl buffer (50 mM, pH 7.4). The suspension was centrifuged (23 500×g, 10 min, 4° C.) and pellets stored at −70° C. until required. They were then thawed and briefly homogenised using an Ultra-Turrax T25 homogeniser prior to dilution to an appropriate protein concentration optimised for specific and non-specific binding. [^3H]80HDPAT (NEN, specific activity 127 Ci/mmol) was diluted in Tris-HCl assay buffer containing CaCl2 (50 mM and 4 mM, respectively; pH 7.7) at a concentration of 5 nmol/L. Prepared radioligand (50 μl) was then incubated (30 min, 37° C.) with membrane preparations from L929 cells stably-transfected with the h5HT1A gene construct (400 μl) and with 50 μl of either the 10% DMSO control, spiroxatrine (10^−6 mol/L final concentration), or compound of interest. Membrane-bound activity was detected by filtration through a Packard Filtermate harvester onto Unifilterplates, washing with ice-cold Tris-HCl buffer (3×4 ml), followed by drying. Scintillation fluid was added and membranes were counted in a Topcount scintillation counter. % Specific bound and competition binding curves were calculated using S-Plus software (Insightful).

[2] = biological target: T3, Human Dopamine D3 receptor (Homo sapiens, UniProt P35462); assay: Binding experiment for dopamine D3 receptor ([125I]Iodosulpride); settings: transfected CHO cell membranes; for IC50: read-out: pIC50 D3 (converted)
T3 construct: expressed in transfected cells; host or cells: CHO cells
Protocol: as §1
Human Dopamine D3 receptor-transfected CHO cells were collected by scraping into ice-cold Tris-HCl buffer (50 mM, pH 7.4). The suspension was centrifuged (23 500×g, 10 min, 4° C.) and pellets stored at −70° C. until required. They were then thawed and briefly homogenised using an Ultra-Turrax T25 homogeniser prior to dilution to an appropriate protein concentration optimised for specific and non-specific binding. [^125I]Iodosulpride (Amersham, specific activity 2000 Ci/mmol) was diluted in Tris-HCl assay buffer containing NaCl, CaCl2, MgCl2, KCl and BSA (50, 120, 2, 1, 5 mM, 0.1% respectively, adjusted to pH 7.7 with HCl) at a concentration of 2 nmol/L. Prepared radioligand (20 μl) was incubated (60 min, RT) and with 20 μl of either the 10% DMSO control, Risperidone (10^−6 mol/L final concentration), or compound of interest, then with membrane preparations (80 μl). Overnight incubation followed after addition of WGA-coated PVT SPA beads (250 μl; Amersham) and membrane-bound counts measured in a Wallac Microbeta. % Specific bound and competition binding curves were calculated using S-Plus software (Insightful).

human 5HT transporter = biological target: T4, human 5HT transporter (Homo sapiens, UniProt P31645); assay: Binding experiment for 5-HT transporter ([3H]Paroxetine); settings: transfected HEK cell membranes, [3H]Paroxetine; for IC50: read-out: pIC50 5HTT (converted)
T4 construct: host or cells: HEK cells
Protocol: as §1
Frozen human 5HT transporter-transfected HEK cells (Perkin Elmer, Brussels) were thawed and briefly homogenised using an Ultra-Turrax T25 homogeniser prior to dilution to an appropriate protein concentration optimised for specific and non-specific binding. [^3H]Paroxetine (NEN, specific activity 20 Ci/mmol) was diluted in Tris-HCl assay buffer containing NaCl and KCl (50 mM, 120 mM and 5 mM, respectively; pH 7.4) at a concentration of 5 nmol/L. Prepared radioligand (25 μl) was then incubated (60 min, 25° C.) with membrane preparations (200 μl) and with 25 μl of either 10% DMSO control, Inipramine (10^−6 mol/L final concentration), or compound of interest. Membrane-bound activity was detected by filtration through a Packard Filtermate harvester onto Unifilterplates pre-soaked in 0.1% PEI, washing with ice-cold assay buffer (3×4 ml). Filters were dried prior to addition of scintillation fluid and then counting in a Topcount scintillation counter. % Specific bound and competition binding curves were calculated using S-Plus software (Insightful).

T3 sequence (P35462 whole entry): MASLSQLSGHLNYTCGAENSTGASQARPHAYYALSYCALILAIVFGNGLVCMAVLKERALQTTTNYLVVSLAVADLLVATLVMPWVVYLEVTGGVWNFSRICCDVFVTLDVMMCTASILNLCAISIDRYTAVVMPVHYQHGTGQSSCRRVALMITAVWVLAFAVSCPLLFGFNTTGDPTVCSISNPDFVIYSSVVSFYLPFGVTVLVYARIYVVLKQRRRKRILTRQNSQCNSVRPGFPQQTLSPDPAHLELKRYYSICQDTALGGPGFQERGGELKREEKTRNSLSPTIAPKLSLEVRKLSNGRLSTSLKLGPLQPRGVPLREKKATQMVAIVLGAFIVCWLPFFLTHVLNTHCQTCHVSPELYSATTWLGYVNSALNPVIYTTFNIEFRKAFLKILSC
T1 sequence (P14416 whole entry): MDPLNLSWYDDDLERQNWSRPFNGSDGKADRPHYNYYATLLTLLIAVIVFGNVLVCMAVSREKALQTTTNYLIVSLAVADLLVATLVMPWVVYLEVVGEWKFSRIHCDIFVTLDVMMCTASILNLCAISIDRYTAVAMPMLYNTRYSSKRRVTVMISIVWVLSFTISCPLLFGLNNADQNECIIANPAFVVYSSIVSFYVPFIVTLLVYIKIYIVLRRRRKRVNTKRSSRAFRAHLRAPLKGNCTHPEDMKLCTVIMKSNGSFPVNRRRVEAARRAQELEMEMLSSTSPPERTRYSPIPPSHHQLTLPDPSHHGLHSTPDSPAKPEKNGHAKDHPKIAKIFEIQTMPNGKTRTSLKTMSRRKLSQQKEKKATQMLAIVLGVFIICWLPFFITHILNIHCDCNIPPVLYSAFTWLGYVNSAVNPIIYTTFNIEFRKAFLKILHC
T4 sequence (P31645 whole entry): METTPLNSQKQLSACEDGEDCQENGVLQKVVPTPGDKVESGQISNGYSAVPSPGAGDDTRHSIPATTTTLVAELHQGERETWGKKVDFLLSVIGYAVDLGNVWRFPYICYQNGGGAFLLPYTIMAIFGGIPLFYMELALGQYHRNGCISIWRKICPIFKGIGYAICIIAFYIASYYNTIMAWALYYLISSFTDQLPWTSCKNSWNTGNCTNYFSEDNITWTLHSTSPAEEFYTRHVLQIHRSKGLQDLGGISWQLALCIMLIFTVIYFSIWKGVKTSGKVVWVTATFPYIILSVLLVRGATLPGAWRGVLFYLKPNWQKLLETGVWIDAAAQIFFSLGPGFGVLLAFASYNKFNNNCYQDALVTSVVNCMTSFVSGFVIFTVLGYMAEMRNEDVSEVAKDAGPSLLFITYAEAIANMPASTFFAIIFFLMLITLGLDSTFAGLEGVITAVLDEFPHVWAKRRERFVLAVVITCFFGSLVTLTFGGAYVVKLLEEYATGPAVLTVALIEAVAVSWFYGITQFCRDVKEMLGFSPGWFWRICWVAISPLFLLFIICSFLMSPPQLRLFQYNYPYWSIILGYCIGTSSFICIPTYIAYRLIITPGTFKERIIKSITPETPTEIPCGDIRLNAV

Row | SMILES | pIC50 D2 [1] | pIC50 5-HT1A (Human 5HT1A receptor) | pIC50 D3 [2] | pIC50 5HTT (human 5HT transporter) | IC50 [1] | IC50 (Human 5HT1A receptor) | IC50 [2] | IC50 (human 5HT transporter)
1 | COc1cc2c(cc1OC)C1=NOC(CN3CC=C(c4c[nH]c5ccc(Cl)cc45)CC3)C1CO2 (racemic) [Compound 25] | 6.6 | 8.3 | 6.9 | 7.1 |  |  |  | 
2 | COc1cc2c(cc1OC)C1=NOC(CN3CC=C(c4c[nH]c5ccc(F)cc45)CC3)C1CO2 (single isomer, unassigned) [Compound 12] | 6.5 | 7.6 | 7.3 | 8.0 |  |  |  | 
3 | COc1cc2c(cc1OC)C1=NOC(CN3CC=C(c4c[nH]c5ccc([N+](=O)[O-])cc45)CC3)C1CO2 (racemic) [Compound 19] | 6.1 | 8.1 | 6.5 | 7.1 |  |  |  | 
4 | COc1cc2c(cc1OC)C1=NOC(CN3CC=C(c4c[nH]c5cc(F)ccc45)CC3)C1CO2 (racemic) [Compound 27] | 6.9 | 7.2 | 6.4 | 7.6 |  |  |  | 
5 | COc1cc2c(cc1OC)C1=NOC(CN3CCC(c4c[nH]c5ccc(Cl)cc45)CC3)C1CO2 (racemic) [Compound 32] | 6.8 | 8.5 | 6.6 | 7.4 |  |  |  | 
6 | COc1cc2c(cc1OC)C1=NOC(CN3CC=C(c4c[nH]c5ccc(F)cc45)CC3)C1CO2 (single isomer, unassigned) [Compound 3] | 6.0 | 6.8 | 7.0 | 7.4 |  |  |  | 
7 | COc1cc2c(cc1OC)C1=NOC(CN3CCC(c4c[nH]c5cccc(F)c45)CC3)C1CO2 (racemic) [Compound 17] | 6.9 | 8.2 | 6.3 | 7.6 |  |  |  | 
8 | COc1cc2c(cc1OC)C1=NOC(CN3CCC(c4c[nH]c5cc(F)ccc45)CC3)C1CO2 (racemic) [Compound 26] | 7.9 | 8.2 | 6.7 | 7.6 |  |  |  | 
9 | COc1ccc2[nH]cc(C3=CCN(CC4ON=C5c6cc(OC)c(OC)cc6OCC54)CC3)c2c1 (racemic) [Compound 7] | <6 | 8.1 | <6 | 6.4 |  |  |  | 
10 | COc1cc2c(cc1OC)C1=NOC(CN3CCC(c4c[nH]c5ccc(F)cc45)CC3)C1CO2 (racemic) [Compound 2] | 7.2 | 8.8 | 7.2 | 7.4 |  |  |  | 
11 | COc1cc2c(cc1OC)C1=NOC(CN3CC=C(c4c[nH]c5cccc(F)c45)CC3)C1CO2 (racemic) [Compound 9] | 6.1 | 8.2 | 6.6 | 7.5 |  |  |  | 
12 | COc1cc2c(cc1OC)C1=NOC(CN3CCC(c4c[nH]c5ccc(C)cc45)CC3)C1CO2 (racemic) [Compound 31] |  |  |  |  | 398 nM | 3.16 nM | 398 nM | 200 nM
13 | COc1cc2c(cc1OC)C1=NOC(CN3CC=C(c4c[nH]c5ccc(O)cc45)CC3)C1CO2 (racemic) [Compound 21] |  |  |  |  | 631 nM | 12.6 nM | 158 nM | 39.8 nM
14 | COc1cc2c(cc1OC)C1=NOC(CN3CCC(c4c[nH]c5ccc(C#N)cc45)CC3)C1CO2 (racemic) [Compound 24] | 6.4 | 8.7 | 6.9 | 7.4 |  |  |  | 
15 | Fc1ccc2[nH]cc(C3CCN(CC4ON=C5c6cc7c(cc6OCC54)OCCO7)CC3)c2c1 (single isomer, unassigned) [Compound 29] | 6.6 | 8.8 | 6.5 | 6.9 |  |  |  | 
16 | COc1cc2c(cc1OC)C1=NOC(CN3CC=C(c4c[nH]c5cccc(F)c45)CC3)C1CO2 (single isomer, unassigned) [Compound 16] | 6.0 | 7.1 | 6.5 | 6.9 |  |  |  | 
